# Experimental data from US5185366A, “Method for treatment and prevention of diseases caused by enveloped viruses, including herpes simplex virus types 1 and 2 diseases, using 3,4-dihydroxy-2H-benzopyran-2H-one” (Ohio State University Research Foundation, priority 1990, dated 1993).
# Where two headings read alike, the source gives them in different places.
# What was measured:
# [1] = test system: HSV-2; assay: HSV-2 plaque size, extracellular treatment; format: cell-based, Herpes simplex virus type 2; conditions: for Mean plaque diameter (±SD), Treated: extracellularly; for reduction in plaque size: virus treated extracellularly
# [2] = test system: HSV-2; assay: Intracellular activity, inhibition of plaque forming units, HSV-2; format: cell-based, Herpes simplex virus type 2; conditions: for intracellular antiviral activity: HSV-2, 10 μM; for Plaque Forming Units Mean ± SD: intracellular
# [3] = test system: HSV-2; assay: Extracellular activity, inhibition of plaque forming units, HSV-2; conditions: for extracellular antiviral activity: HSV-2, 10 μM; for Plaque Forming Units Mean ± SD: extracellular
# [4] = Inhibition of cell growth (microscopic cell count); format: cell-based, Buffalo green monkey; conditions: monkey, bgm-70 cells, read-out: % Reduction of cell growth
# Description: a MASHII cell harvester and placed in a scintillation counter to determin
# incorporation of labelled compound and level of toxicity. BGM 70 cells ar
# seeded at a concentration of […] per well in a 24well tissue cultur
# plate. Cells are planted in 2 mL of growth medium with or without the tes
# compound and are incubated at 37° C. for 38 hours. At 24 hours
# medium is removed from onehalf of the plates and the cells are fixed and
# stained with crystal violet. The remaining cultures are fixed and stained
# ^b BGM 70 cells are counted microscopically and comparisons are made.
# Experiments are performed blindly by assigning each compound concentratio
# a letter code. The code is broken after the cells are counted.
# The effect of the compounds on the inhibition of cell growth is determined using BGM-70 cells grown in vitro. For this assay, BGM 70 cells are seeded at a concentration of approximately 70 cells per well in 24-well tissue culture plates. Cells are planted in 2 ml of growth medium with or without the test compound and are incubated at 37° C. for 48 hours. At 24 hours, cells from one half of the plates are fixed and stained with crystal violet. The remaining cultures are fixed and stained at 48 hours. Cells are counted microscopically and comparisons are made between non-treated (control) and treated cells.
# [5] = test system: HSV; assay: Selectivity among the viruses tested; format: cell-based, Herpes simplex virus
# [6] = test system: Poliovirus-2; assay: organism not typed; format: cell-based
# [7] = test system: VSV; assay: microbe, parasite or virus in culture; format: cell-based, Vesicular stomatitis virus
# [8] = test system: VSV; assay: microbe, parasite or virus in culture; format: cell-based, Vesicular stomatitis virus; remark: listed apart in the source
# [9] = test system: Buffalo green monkey kidney (BGM 70) cells; assay: [3H]-thymidine uptake cytotoxicity; format: cell-based; conditions: for inhibition at 0.4 µM / inhibition at 1.6 µM / inhibition at 2.5 µM / inhibition at 10 µM: Chlorocebus sabaeus, read-out: % Inhibition of [3H]-Thymidine Incorporated; for inhibition at 0.4 µM: 0.4 μmol/L; for inhibition at 1.6 µM: 1.6 μmol/L; for inhibition at 2.5 µM: 2.5 μmol/L; for inhibition at 10 µM: 10.0 μmol/L; for toxicity ([3H]-thymidine uptake and/or cell growth): at 10 μM
# [10] = test system: HSV-2; assay: HSV-2 plaque size, intracellular treatment; format: cell-based, Herpes simplex virus type 2
# Description: For antiviral studies the diameter of plaques is determined with the aid of a calibrated micrometer slide and a microscope eye piece having scaled markings. A simple random sample is taken and all plaque diameters are measured for both experimental and control groups. Plaque diameter also serves as an indication of inhibition of viral replication. […] Monolayers are then infected, washed with EBSS and | maintenance medium with or without compound added. Cells are stained afte | 48 hours with crystal violet and the plaque diameters are determined with | the aid of a micrometer.
# [11] = test system: Poliovirus-2; assay: organism not typed; format: cell-based; remark: listed apart in the source
# [12] = test system: HSV-1; assay: Extracellular activity, inhibition of plaque forming units, HSV-1; conditions: for extracellular antiviral activity: HSV-1, 10 μM; for Plaque Forming Units Mean ± SD: extracellular
# [13] = test system: HSV-1; assay: Intracellular activity, inhibition of plaque forming units, HSV-1; format: cell-based, Herpes simplex virus type 1; conditions: for intracellular antiviral activity: HSV-1, 10 μM; for Plaque Forming Units Mean ± SD: intracellular
# [14] = listed as 3,4-dihydroxy-2H-1-benzopyran-2-one
smiles,measurement,setting,value
"O=c1oc2ccccc2c(O)c1O [Compound 5, 3,4-dihydroxy-2H-1-benzopyran-2-one]",inhibition at 10 µM,"[1]; Human alphaherpesvirus 2, extracellularly, 10 μM, relative viral conc 1, read-out: % Inhib (mean plaque diameter)",6%
same,inhibition at 10 µM,"[1]; Human alphaherpesvirus 2, extracellularly, 10 μM, relative viral conc 10, read-out: % Inhib (mean plaque diameter)",1%
same,inhibition at 20 µM,"[1]; Human alphaherpesvirus 2, extracellularly, 20 μM, relative viral conc 10, read-out: % Inhib (mean plaque diameter)",1%
same,"Mean plaque diameter (±SD), Treated","[1]; 10 μM, relative viral conc 1",449 ± 70 micrometers
same,"Mean plaque diameter (±SD), Treated","[1]; 10 μM, relative viral conc 10",500 ± 100 micrometers
same,"Mean plaque diameter (±SD), Treated","[1]; 20 μM, relative viral conc 10",486 ± 80 micrometers
same,reduction in plaque size,[1]; 10 μM,no significant reduction
same,reduction in plaque size,"[1]; 10 μM, listed as 3,4-dihydroxy-2H-1-benzopyran-2-one",no reduction in plaque size
same,intracellular antiviral activity,[2],shows both intra- and extra- cellular antiviral activity
same,intracellular antiviral activity,[2]; [14],exhibits both intracellular and extracellular activity
same,inhibition at 10 µM,"[2]; Human alphaherpesvirus 2, 10 μM, one experiment, n=3 wells, P<0.07, read-out: inhibition (PFU), virus-infected cells",26 ± 4%
same,inhibition at 10 µM,"[2]; Human alphaherpesvirus 2, HSV-2, 10 μM (Table IV), read-out: % Inhibition of Plaque Forming Units, Intracellularly",36 ± 4.7%
same,inhibition at 10 µM,"[2]; Human alphaherpesvirus 2, HSV-2, 10 μM, P<0.01, read-out: inhibition (PFU), intracellularly",25 to 39%
same,inhibition at 10 µM,"[2]; Human alphaherpesvirus 2, HSV-2, 10.0 μmol/L, read-out: % Inhibition of PFU, IA (intracellular activity)",36%
same,inhibition at 10 µM,"[2]; Human alphaherpesvirus 2, intracellular, HSV-2: 1 × Cmpd (10 μM), relative viral conc 10, read-out: % Inhibition",33%
same,inhibition at 10 µM,"[2]; Human alphaherpesvirus 2, intracellular, HSV-2: 1 × Cmpd (10 μM), relative viral conc 100, read-out: % Inhibition",39%
same,anti-HSV-2 properties,[2]; at noncytotoxic concentrations,exhibited anti-HSV-2 properties at noncytotoxic concentrations
same,Plaque Forming Units Mean ± SD,"[2]; HSV-2: 1 × Cmpd (10 μM), relative viral conc 10",14.3 ± 1.1
same,Plaque Forming Units Mean ± SD,"[2]; HSV-2: 1 × Cmpd (10 μM), relative viral conc 100",153.6 ± 7.4
same,extracellular antiviral activity,[3],shows both intra- and extra- cellular antiviral activity
same,extracellular antiviral activity,[3]; [14],exhibits both intracellular and extracellular activity
same,inhibition at 10 µM,"[3]; Human alphaherpesvirus 2, extracellular, HSV-2 + 1 × Cmpd (10 μM), relative viral conc 10",64%
same,inhibition at 10 µM,"[3]; Human alphaherpesvirus 2, extracellular, HSV-2 + 1 × Cmpd (10 μM), relative viral conc 100",77%
same,inhibition at 20 µM,"[3]; Human alphaherpesvirus 2, extracellular, HSV-2 + 2 × Cmpd (20 μM), relative viral conc 10",96%
same,inhibition at 20 µM,"[3]; Human alphaherpesvirus 2, extracellular, HSV-2 + 2 × Cmpd (20 μM), relative viral conc 100",95%
same,inhibition at 10 µM,"[3]; Human alphaherpesvirus 2, read-out: % Inhibition of PFU, EA (extracellular activity), HSV-2, 10.0 μmol/L",81%
same,inhibition at 10 µM,"[3]; Human alphaherpesvirus 2, read-out: % Inhibition of Plaque Forming Units, Extracellularly, HSV-2, 10 μM (Table IV)",81 ± 4%
same,inhibition at 10 µM,"[3]; Human alphaherpesvirus 2, read-out: reduction (PFU), extracellularly, HSV-2, 10 μM level, P<0.01",76 to 98%
same,"inhibition, extracellular treatment of HSV-2","[3]; comparison with clofibric acid, P<0.01",63+/-4%
same,Plaque Forming Units Mean ± SD,"[3]; HSV-2 + 1 × Cmpd (10 μM), relative viral conc 10",5.3 ± 1.5
same,Plaque Forming Units Mean ± SD,"[3]; HSV-2 + 1 × Cmpd (10 μM), relative viral conc 100",49.3 ± 4.5
same,Plaque Forming Units Mean ± SD,"[3]; HSV-2 + 2 × Cmpd (20 μM), relative viral conc 10",0.6 ± 0.6
same,Plaque Forming Units Mean ± SD,"[3]; HSV-2 + 2 × Cmpd (20 μM), relative viral conc 100",9.7 ± 1.5
same,"inhibition at 24 h, 10 µM","[4]; 24 h, 10.0 μmol/L",0%
same,"inhibition at 24 h, 50 µM","[4]; 24 h, 50.0 μmol/L",5.9 ± 0.5%
same,"inhibition at 24 h, 100 µM","[4]; 24 h, 100.0 μmol/L",47.8 ± 9%
same,"inhibition at 48 h, 10 µM","[4]; 48 h, 10.0 μmol/L",0.4%
same,"inhibition at 48 h, 50 µM","[4]; 48 h, 50.0 μmol/L",8.7 ± 2.8%
same,"inhibition at 48 h, 100 µM","[4]; 48 h, 100.0 μmol/L",54.1 ± 3.2%
same,selectivity for HSV among the viruses tested,[5],selective for HSV among the viruses tested
same,extracellular antiviral activity,"[6]; poliovirus-2, n=2",no antiviral activity
same,inhibition at 10 µM,"[6]; read-out: % Inhibition of Plaque Forming Units, Extracellularly",2.7%
same,extracellular antiviral activity,"[7]; VSV, n=2",no antiviral activity
same,inhibition at 10 µM,"[7]; Vesicular stomatitis virus, read-out: % Inhibition of Plaque Forming Units, Extracellularly",0%
same,intracellular antiviral activity,"[8]; VSV, n=2",no antiviral activity
same,inhibition at 10 µM,"[8]; Vesicular stomatitis virus, read-out: % Inhibition of Plaque Forming Units, Intracellularly",0%
same,inhibition at 0.4 µM,[9]; 24 h,0%
same,inhibition at 1.6 µM,[9]; 24 h,0%
same,inhibition at 2.5 µM,[9]; 24 h,0%
same,inhibition at 10 µM,[9]; 24 h,28.4 ± 7.6%
same,inhibition at 0.4 µM,[9]; 48 h,0%
same,inhibition at 1.6 µM,[9]; 48 h,0%
same,inhibition at 2.5 µM,[9]; 48 h,0%
same,inhibition at 10 µM,[9]; 48 h,26.3 ± 6.3%
same,inhibition at 0.4 µM,[9]; 72 h,0%
same,inhibition at 1.6 µM,[9]; 72 h,0%
same,inhibition at 2.5 µM,[9]; 72 h,0%
same,inhibition at 10 µM,[9]; 72 h,0%
same,toxicity ([3H]-thymidine uptake and/or cell growth),[9],no toxicity
same,toxicity ([3H]-thymidine uptake and/or cell growth),[9]; [14],non-toxic
same,inhibition at 10 µM,"[10]; Human alphaherpesvirus 2, 48 h, viral-infected cells, 10 μM, read-out: reduction in plaque size",56%
same,inhibition at 10 µM,"[10]; Human alphaherpesvirus 2, intracellularly, 10 μM, relative viral conc 10, read-out: % Inhib (mean plaque diameter)",56%
same,inhibition at 20 µM,"[10]; Human alphaherpesvirus 2, intracellularly, 20 μM, relative viral conc 10, read-out: % Inhib (mean plaque diameter)",60%
same,"Mean plaque diameter (±SD), Treated","[10]; intracellularly, 10 μM, relative viral conc 1",213 ± 79 micrometers
same,"Mean plaque diameter (±SD), Treated","[10]; intracellularly, 10 μM, relative viral conc 10",221 ± 89 micrometers
same,"Mean plaque diameter (±SD), Treated","[10]; intracellularly, 20 μM, relative viral conc 1",205 ± 90 micrometers
same,"Mean plaque diameter (±SD), Treated","[10]; intracellularly, 20 μM, relative viral conc 10",202 ± 88 micrometers
same,intracellular antiviral activity,"[11]; poliovirus-2, n=2",no antiviral activity
same,inhibition at 10 µM,"[11]; read-out: % Inhibition of Plaque Forming Units, Intracellularly",2.1%
same,extracellular antiviral activity,[12],shows both intra- and extra- cellular antiviral activity
same,extracellular antiviral activity,[12]; [14],exhibits both intracellular and extracellular activity
same,inhibition at 10 µM,"[12]; Human alphaherpesvirus 1, extracellular, HSV-1 + 1 × Cmpd (10 μM), relative viral conc 10",82%
same,inhibition at 10 µM,"[12]; Human alphaherpesvirus 1, extracellular, HSV-1 + 1 × Cmpd (10 μM), relative viral conc 100",76%
same,inhibition at 20 µM,"[12]; Human alphaherpesvirus 1, extracellular, HSV-1 + 2 × Cmpd (20 μM), relative viral conc 10",98%
same,inhibition at 20 µM,"[12]; Human alphaherpesvirus 1, extracellular, HSV-1 + 2 × Cmpd (20 μM), relative viral conc 100",95%
same,inhibition at 10 µM,"[12]; Human alphaherpesvirus 1, read-out: % Inhibition of Plaque Forming Units, Extracellularly, HSV-1, 10 μM",76.4 ± 2.2%
same,inhibition at 10 µM,"[12]; Human alphaherpesvirus 1, read-out: reduction (PFU), extracellularly, HSV-1, 10 μM level, P<0.01",76 to 98%
same,Plaque Forming Units Mean ± SD,"[12]; HSV-1 + 1 × Cmpd (10 μM), relative viral conc 10",2.6 ± 1.6
same,Plaque Forming Units Mean ± SD,"[12]; HSV-1 + 1 × Cmpd (10 μM), relative viral conc 100",40.6 ± 3.8
same,Plaque Forming Units Mean ± SD,"[12]; HSV-1 + 2 × Cmpd (20 μM), relative viral conc 10",0.3 ± 0.5
same,Plaque Forming Units Mean ± SD,"[12]; HSV-1 + 2 × Cmpd (20 μM), relative viral conc 100",9.3 ± 1.5
same,intracellular antiviral activity,[13],shows both intra- and extra- cellular antiviral activity
same,intracellular antiviral activity,[13]; [14],exhibits both intracellular and extracellular activity
same,inhibition at 10 µM,"[13]; Human alphaherpesvirus 1, HSV-1, 10 μM, P<0.01, read-out: inhibition (PFU), intracellularly",25 to 39%
same,inhibition at 10 µM,"[13]; Human alphaherpesvirus 1, HSV-1, 10 μM, read-out: % Inhibition of Plaque Forming Units, Intracellularly",38.4 ± 5.7%
same,inhibition at 10 µM,"[13]; Human alphaherpesvirus 1, intracellular, HSV-1: 1 × Cmpd (10 μM), relative viral conc 10, read-out: % Inhibition",25%
same,inhibition at 10 µM,"[13]; Human alphaherpesvirus 1, intracellular, HSV-1: 1 × Cmpd (10 μM), relative viral conc 100, read-out: % Inhibition",38%
same,Plaque Forming Units Mean ± SD,"[13]; HSV-1: 1 × Cmpd (10 μM), relative viral conc 10",11.0 ± 1.0
same,Plaque Forming Units Mean ± SD,"[13]; HSV-1: 1 × Cmpd (10 μM), relative viral conc 100",106.6 ± 9.3
